According to ChEMBL document CHEMBL5241104, “Reactive metabolites of the anticonvulsant drugs and approaches to minimize the adverse drug reaction” (Eur J Med Chem, 2021):

Experiments:
Mus musculus [1] = assay: Anticonvulsant activity in Swiss albino mouse assessed as protection against maximal electroshock induced seizure at ip administration; assay type: functional
Mus musculus [2] = assay: Anticonvulsant activity in Swiss albino mouse brain assessed as increase in GABA level at 30 mg/kg,ip measured after 2 hrs of post-administration by spectrophotometric method; assay type: functional
Mus musculus [3] = assay: Anticonvulsant activity in Swiss albino mouse brain assessed as increase in GABA level at 30 mg/kg,ip measured after 7 days of post-administration by spectrophotometric method; assay type: functional; settings: time 7 day
Mus musculus [4] = assay: Anticonvulsant activity in Swiss albino mouse assessed as protection against Sc-PTZ induced seizure at ip administration; assay type: functional
[5] = Toxicity in Swiss albino mouse assessed as median toxicity dose at ip administration; assay type: organism-based; settings: in vivo
[6] = Toxicity in Swiss CD-1 mouse assessed as mortality at 100 mg/kg,ip; assay type: organism-based; settings: in vivo
Mus musculus [7] = assay: Anticonvulsant activity in Swiss albino mouse assessed as inhibition of maximal electroshock induced seizure at ip administration; assay type: functional
Mus musculus [8] = assay: Anticonvulsant activity in mouse assessed as protection against maximal electroshock induced seizure at ip administration for 5 mins; assay type: functional
[9] = Protective index, ratio of TD50 for toxicity in Wistar rat assessed as median toxicity dose at po administration by rotorod test to ED50 for anticonvulsant activity in Wistar rat assessed as protection against maximal electroshock induced seizure at po administration; assay type: organism-based; settings: in vivo, read-out: Ratio TD50/ED50
Rattus norvegicus [10] = species: Rattus norvegicus; assay: Inhibition of sodium uptake in rat cerebral cortical synaptosomes at 100 uM incubated for 30 mins by scintillation counting analysis; assay type: functional; settings: Cerebral cortex, Synaptosome
Rattus norvegicus [11] = species: Rattus norvegicus; assay: Inhibition of sodium uptake in rat cerebral cortical synaptosomes at 300 uM incubated for 30 mins by scintillation counting analysis; assay type: functional; settings: Cerebral cortex, Synaptosome
Rattus norvegicus [12] = assay: Anticonvulsant activity in Wistar rat assessed as protection against maximal electroshock induced seizure at po administration; assay type: functional
Rattus norvegicus [13] = assay: Anticonvulsant activity in Wistar rat assessed as protection against maximal electroshock induced seizure by measuring median effective dose at po administration; assay type: functional
Rattus norvegicus [14] = species: Rattus norvegicus; assay: Inhibition of sodium uptake in rat cerebral cortical synaptosomes at 30 uM incubated for 30 mins by scintillation counting analysis; assay type: functional; settings: Cerebral cortex, Synaptosome
[15] = Displacement of 3[H]BTX from rat cerebral cortical synaptosomes voltage-sensitive sodium channel incubated for 1.5 hrs by scintillation counting analysis; assay type: subcellular, Cerebral cortex, Synaptosome
[16] = Protective index, ratio of TD50 for toxicity in Sc-PTZ induced Swiss albino mouse seizure model assessed as median neurotoxicity dose at po administration by rotorod test to ED50 for anticonvulsant activity in Swiss albino mouse assessed as protection against Sc-PTZ induced seizure at po administration; assay type: organism-based; settings: in vivo, read-out: Ratio TD50/ED50
[17] = Toxicity in Swiss albino mouse assessed as lethality at 30 mg/kg,ip; assay type: organism-based; settings: in vivo, read-out: Activity
Mus musculus [18] = assay: Anticonvulsant activity in Albino mouse brain assessed as increase in GABA level at 30 to 300 mg/kg,ip by spectrophotometric method; assay type: functional; settings: dose 30-300 mg/kg
Mus musculus [19] = assay: Anticonvulsant activity in mouse assessed as inhibition of maximal electroshock induced seizure at 200 mg/kg,po administration for 120 mins; assay type: functional; settings: 2 h
[20] = Displacement of 3[H]BTX from rat brain membrane voltage-sensitive sodium channel incubated for 1.5 hrs by scintillation counting analysis; assay type: cell membranes
[21] = Protective index, ratio of TD50 for toxicity in CF-1 mouse assessed as median toxicity dose at ip administration upto 4 hrs by rotorod test to ED50 for anticonvulsant activity in CF-1 mouse assessed as protection against maximal electroshock induced seizure at ip administration upto 4 hrs; assay type: organism-based; settings: in vivo, read-out: Ratio TD50/ED50
[22] = Toxicity in CF-1 mouse assessed as median toxic dose at ip administrated upto 4 hrs; assay type: organism-based; settings: in vivo
Mus musculus [23] = assay: Anticonvulsant activity in Swiss mouse assessed as protection against Sc-PTZ induced seizure at ip administration; assay type: functional
[24] = Protective index, ratio of TD50 for toxicity in Albino mouse assessed as median neurotoxicity dose at ip administration by rotorod test to ED50 for anticonvulsant activity in Albino mouse assessed as protection against Sc-PTZ induced seizure at ip administration; assay type: organism-based; settings: in vivo, read-out: Ratio TD50/ED50
[25] = Protective index, ratio of TD50 for toxicity in Albino mouse assessed as median neurotoxicity dose at ip administration by rotorod test to ED50 for anticonvulsant activity in Albino mouse assessed as protection against maximal electroshock induced seizure at ip administration; assay type: organism-based; settings: in vivo, read-out: Ratio TD50/ED50
Mus musculus [26] = assay: Anticonvulsant activity in Albino mouse assessed as protection against Sc-PTZ induced seizure at ip administration; assay type: functional
Mus musculus [27] = assay: Anticonvulsant activity in Albino mouse assessed as protection against maximal electroshock induced seizure at ip administration; assay type: functional
Mus musculus [28] = assay: Anticonvulsant activity in mouse assessed as protection against Sc-metrazol induced seizure at po administration; assay type: functional
Rattus norvegicus [29] = assay: Anticonvulsant activity in rat assessed as protection against Sc-metrazol induced seizure at po administration; assay type: functional

Structure (SMILES): COc1cc(C2CC(c3ccc(O)cc3)=NC(=S)N2C2=NC(=O)NNC2)ccc1O (stereo not drawn)
- ED50 (Mus musculus [1]): 29.4 mg/kg
- Activity (Mus musculus [2]): 86.17 µg
- Activity (Mus musculus [3]): 91.47 µg
- ED50 (Mus musculus [4]): 293 mg/kg
- TD50 [5]: 412 mg/kg

Structure (SMILES): COc1ccccc1N1CCN(CCCN2CCCC2=O)CC1
- mortality [6]: 25%

Structure (SMILES): COc1ccccc1/C=C1/N=C(c2ccccc2)c2cc([N+](=O)[O-])ccc2NC1=O
- inhibition (INH) (Mus musculus [7]): 69%

Structure (SMILES): O=C(NC1CCCCC1)C(c1ccc(F)cc1)N1Cc2cnnn2-c2ccccc2C1=O (stereo not drawn)
- Activity (Mus musculus [8]): 87.5%

Structure (SMILES): CCCC(CCC)c1nnc(S)n1-c1ccccc1
- TD50 [5]: 371 mg/kg

Structure (SMILES): CC(=O)O[C@@H]1Cc2ccccc2N(C(N)=O)c2ccccc21
- selectivity ratio [9]: > 91.7
- inhibition (Rattus norvegicus [10]): 57.7%
- inhibition (Rattus norvegicus [11]): 73.2%
- Activity (Rattus norvegicus [12]): 5.9%
- ED50 (Rattus norvegicus [13]): 4.7 mg/kg
- inhibition (Rattus norvegicus [14]): 17.9%
- IC50 [15]: 141 µM

Structure (SMILES): C=CCC(CC(C)C)C(=O)O (racemic)
- selectivity ratio [16]: 3.2

Structure (SMILES): CCOc1ccccc1N1CCN(CCCN2CCCC2=O)CC1
- mortality [6]: 25%

Structure (SMILES): COc1ccc(/C=C2/N=C(c3ccccc3)c3cc([N+](=O)[O-])ccc3NC2=O)cc1O
- inhibition (INH) (Mus musculus [7]): 70%

Structure (SMILES): CC(=O)OC1Cc2ccccc2N(C(N)=O)c2ccccc21 (stereo not drawn)
- inhibition (Rattus norvegicus [10]): 61.8%
- inhibition (Rattus norvegicus [11]): 82.1%
- Activity (Rattus norvegicus [12]): 54.4%
- inhibition (Rattus norvegicus [14]): 42.2%
- IC50 [15]: 138 µM

Structure (SMILES): O=C1Nc2ccc(Br)cc2C12Nc1ccccc1-c1nc(=O)c(-c3ccccc3)nn12 (stereo not drawn)
- mortality [17]: 30%

Structure (SMILES): CN1C(=O)CC(=O)N(c2ccccc2)c2cc(Cl)ccc21 [CLOBAZAM]
- Activity (Mus musculus [18]): 54.9 mg

Structure (SMILES): CC1(C)O[C@@H]2O[C@@]3(COS(N)(=O)=O)OC(C)(C)OC3[C@@H]2O1 (stereo partly drawn)
- inhibition in vivo at 200 mg/kg (Mus musculus [19]): ≥ 80%

Structure (SMILES): COc1ccc(NC(=O)CN2C(=O)C3(Nc4ccccc4-c4nc(=O)c(C)nn43)c3ccccc32)cc1 (stereo not drawn)
- mortality [17]: 20%

Structure (SMILES): NC(=O)N1c2ccccc2CC([N+](=O)[O-])c2ccccc21 (stereo not drawn)
- IC50 [20]: 2.29 mM

Structure (SMILES): COC(=O)C1C(=O)C=C(Nc2cc(C)on2)CC1C (stereo not drawn)
- selectivity ratio at 4 h [21]: > 7.3
- TD50 at 4 h [22]: > 500 mg/kg

Structure (SMILES): O=C1NC(=O)C(c2ccccc2)(c2ccccc2)N1 [PHENYTOIN]
- ED50 (Mus musculus [23]): > 300 mg/kg

Structure (SMILES): CC(=O)O[C@H]1Cc2ccccc2N(C(N)=O)c2ccccc21 [ESLICARBAZEPINE ACETATE]
- selectivity ratio [9]: 76.3
- inhibition (Rattus norvegicus [10]): 73.4%
- inhibition (Rattus norvegicus [11]): 95.6%
- Activity (Rattus norvegicus [12]): 100%
- ED50 (Rattus norvegicus [13]): 4.7 mg/kg
- inhibition (Rattus norvegicus [14]): 52.6%
- IC50 [15]: 113 µM

Structure (SMILES): CN(C)c1ccc(/C=N/Nc2nnc(-c3ccccc3)nc2Cc2ccc(Cl)cc2)cc1
- selectivity ratio [24]: 4.29
- selectivity ratio [25]: 7.82
- Activity (Mus musculus [18]): 37.3 mg
- ED50 (Mus musculus [26]): 83.9 mg/kg
- ED50 (Mus musculus [27]): 46 mg/kg

Structure (SMILES): O=C1N=C(N2C(=S)N=C(c3ccc(F)cc3)CC2c2ccc(O)cc2)CNN1 (stereo not drawn)
- ED50 (Mus musculus [1]): 22.5 mg/kg
- Activity (Mus musculus [2]): 77.42 µg
- Activity (Mus musculus [3]): 78.96 µg
- ED50 (Mus musculus [4]): 285 mg/kg
- TD50 [5]: 389 mg/kg

Structure (SMILES): CNS(=O)(=O)OC[C@]12OC[C@@H]3OC(C)(C)O[C@@H]3C1OC(C)(C)O2 (stereo partly drawn)
- inhibition in vivo at 200 mg/kg (Mus musculus [19]): ≥ 80%

Structure (SMILES): CC1(C)O[C@H]2CO[C@]3(COS(=O)(=O)N=[N+]=[N-])OC(C)(C)OC3[C@H]2O1 (stereo partly drawn)
- inhibition in vivo at 200 mg/kg (Mus musculus [19]): ≥ 80%

Structure (SMILES): CONC(=O)C1C(C)(C)C1(C)C
- ED50 (Mus musculus [28]): 74 mg/kg
- ED50 (Rattus norvegicus [29]): 35 mg/kg
